IC50 data for 14 compounds are collected here from patent publication US8716312B2, “Inhibitors of diacylglycerol acyltransferase” (Merck Sharp & Dohme Corporation, priority 2008, dated 2014).

pIC50: −log10 of the molar value.

The target in the experiment is T1, human DGAT1 enzyme (Homo sapiens, UniProt O75907).
T1 sequence (O75907 1-488): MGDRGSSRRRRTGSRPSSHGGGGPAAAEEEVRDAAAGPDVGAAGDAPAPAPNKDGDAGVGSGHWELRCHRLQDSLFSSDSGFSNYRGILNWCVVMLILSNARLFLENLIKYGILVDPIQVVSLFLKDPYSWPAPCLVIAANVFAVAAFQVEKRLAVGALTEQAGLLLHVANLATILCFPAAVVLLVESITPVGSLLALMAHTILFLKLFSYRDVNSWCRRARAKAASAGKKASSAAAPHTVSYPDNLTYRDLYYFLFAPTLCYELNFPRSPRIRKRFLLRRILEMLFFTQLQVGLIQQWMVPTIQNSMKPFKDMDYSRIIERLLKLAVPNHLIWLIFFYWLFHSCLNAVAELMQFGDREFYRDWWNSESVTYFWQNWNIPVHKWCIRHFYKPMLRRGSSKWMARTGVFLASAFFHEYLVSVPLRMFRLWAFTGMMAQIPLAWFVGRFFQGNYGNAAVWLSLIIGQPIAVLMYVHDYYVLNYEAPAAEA
The experiment can be described thus: in vitro DGAT1 inhibition assay (microsomes, [14C]-palmitoyl-CoA, SPA beads).
Experimental: The in vitro assay to identify DGAT1 inhibitors uses human DGAT1 enzyme expressed in Sf9 insect cells prepared as microsomes. The reaction is initiated by the addition of the combined substrates 1,2-dioleoyl-sn-glycerol and [^14C]-palmitoyl-Co A and incubated with test compounds and microsomal membranes for 2 hours at room temperature. The assay is stopped by adding 0.5 mg wheat germ agglutinin beads in assay buffer with 1% Brij-35 and 1% 3-cholamidopropyldimethyl-ammonio-1-propane sulfonate. Plates are sealed with TopSeal and incubated for 18 hours to allow the radioactive triglyceride product to come into proximity with the bead. Plates are read on a TopCount instrument.
Percent inhibition was calculated as the percent of (test compound inhibition minus non-specific binding) relative to (total binding minus non-specific binding). IC50 values were determined by curve fitting the data to a Sigmoidal dose-response in GraphPad Prism utilizing the following equation: Y=A+(B−A)/(1+10^((Log IC50−X))), where A and B are the bottom and top of the curve (highest and lowest inhibition), respectively, and X is the logarithm of concentration.
As to `CC1CCCN(c2nc(C(F)(F)F)c(C(=O)Nc3ccc(N4CCN(C(=O)[C@H](O)c5ccccc5)CC4)nc3)o2)C1` (stereo partly drawn) [Compound 198, N-(6-(4-((R)-2-hydroxy-2-phenylacetyl)piperazin-1-yl)pyridin-3-yl)-2-(3-methylpiperidin-1-yl)-4-(trifluoromethyl)oxazole-5-carboxamide], the negative logarithm of the IC50 (pIC50) is 7.00 to 7.96.

`O=C(Nc1ccc(N2CCN(C(=O)C3Cc4ccccc4C3)CC2)nc1)c1oc(N2CCC(c3ccccc3)CC2)nc1C(F)(F)F` [Compound 244, N-(6-(4-(2,3-dihydro-1H-indene-2-carbonyl)piperazin-1-yl)pyridin-3-yl)-2-(4-phenylpiperidin-1-yl)-4-(trifluoromethyl)oxazole-5-carboxamide] showed a pIC50 of 6.30 to 7.00.

The compound `CC1CCCN(c2nc(C(F)(F)F)c(C(=O)Nc3ccc(N4CCC(OCc5ccccc5C(=O)O)CC4)nc3)o2)C1` (centres unmarked) [Compound 255, 2-((1-(5-(2-(3-methylpiperidin-1-yl)-4-(trifluoromethyl)oxazole-5-carboxamido)pyridin-2-yl)piperidin-4-yloxy)methyl)benzoic acid] showed a pIC50 of 7.00 to 7.96.

`O=C(O)c1ccccc1OCC1CCN(c2ccc(NC(=O)c3oc(N4CCC(c5ccccc5)CC4)nc3C(F)(F)F)cn2)CC1` [Compound 266, 2-((1-(5-(2-(4-phenylpiperidin-1-yl)-4-(trifluoromethyl)oxazole-5-carboxamido)pyridin-2-yl)piperidin-4-yl)methoxy)benzoic acid] had a negative logarithm of the IC50 (pIC50) of 6.30 to 7.00.

In the case of `Cc1cccc(Cl)c1NC(=O)N1CCCN(c2ccc(NC(=O)c3oc(N4CCCC(C)C4)nc3C(F)(F)F)cn2)CC1` (centres unmarked) [Compound 215, N-(2-chloro-6-methylphenyl)hexahydro-4-[5-[[[2-(3-methyl-1-piperidinyl)-4-(trifluoromethyl)-5-oxazolyl]carbonyl]amino]-2-pyridinyl]-1H-1,4-diazepine-1-carboxamide], the negative logarithm of the IC50 (pIC50) is 7.00 to 7.96.

Turning to `CC1CCCN(c2nc(C(F)(F)F)c(C(=O)Nc3ccc(N4CCN(c5ccccc5F)CC4)nc3)o2)C1` (centres unmarked) [Compound 164, N-(6-(4-(2-fluorophenyl)piperazin-1-yl)pyridin-3-yl)-2-(3-methylpiperidin-1-yl)-4-(trifluoromethyl)oxazole-5-carboxamide], the pIC50 was 7.00 to 7.96.

As for `CC1CCCN(c2nc(C(F)(F)F)c(C(=O)Nc3ccc(N4CCC(OCc5cccc(C(=O)O)c5)CC4)nc3)o2)C1` (centres unmarked) [Compound 254, 3-((1-(5-(2-(3-methylpiperidin-1-yl)-4-(trifluoromethyl)oxazole-5-carboxamido)pyridin-2-yl)piperidin-4-yloxy)methyl)benzoic acid], the pIC50 was 7.00 to 7.96.

Compound `O=C(Nc1ccc(N2CCN(C(=O)C(O)C(F)(F)F)CC2)nc1)c1oc(N2CCC(c3cccc(Cl)c3)C2)nc1C(F)(F)F` (centres unmarked) [Compound 212, 2-(3-(3-chlorophenyl)pyrrolidin-1-yl)-N-(6-(4-(3,3,3-trifluoro-2-hydroxypropanoyl)piperazin-1-yl)pyridin-3-yl)-4-(trifluoromethyl)oxazole-5-carboxamide] gave a pIC50 of 7.00 to 7.96.

In turn, `O=C(Nc1ccc(N2CCN(C(=O)Cc3c(F)cccc3F)CC2)nc1)c1oc(N2CCC(c3ccccc3)CC2)nc1C(F)(F)F` [Compound 229, N-(6-(4-(2-(2,6-difluorophenyl)acetyl)piperazin-1-yl)pyridin-3-yl)-2-(4-phenylpiperidin-1-yl)-4-(trifluoromethyl)oxazole-5-carboxamide] had a negative logarithm of the IC50 (pIC50) of 7.00 to 7.96.

In turn, `CC1CCCN(c2nc(C(F)(F)F)c(C(=O)Nc3ccc(N4CCc5c(cccc5C(=O)O)C4)nc3)o2)C1` (centres unmarked) [Compound 168, 2-(5-(2-(3-methylpiperidin-1-yl)-4-(trifluoromethyl)oxazole-5-carboxamido)pyridin-2-yl)-1,2,3,4-tetrahydroisoquinoline-5-carboxylic acid] showed a pIC50 of 6.30 to 7.00.

As to `CC1CCCN(c2nc(C(F)(F)F)c(C(=O)Nc3ccc(N4CCc5c(cccc5Nc5ccccc5F)C4)nc3)o2)C1` (centres unmarked) [Compound 174, N-(6-(5-(2-fluorophenylamino)-3,4-dihydroisoquinolin-2(1H)-yl)pyridin-3-yl)-2-(3-methylpiperidin-1-yl)-4-(trifluoromethyl)oxazole-5-carboxamide], the negative-log IC50 (pIC50) is 6.30 to 7.00.

Take `O=C(Nc1ccc(N2CCN(C(=S)Nc3ccccc3F)CC2)nc1)c1oc(N2CCC(c3ccccc3)CC2)nc1C(F)(F)F` [Compound 181, N-(6-(4-(2-fluorophenylcarbamothioyl)piperazin-1-yl)pyridin-3-yl)-2-(4-phenylpiperidin-1-yl)-4-(trifluoromethyl)oxazole-5-carboxamide]: the negative-log IC50 (pIC50) was 7.00 to 7.96.

Compound `Cc1ccccc1NC(=O)c1ccc2c(c1)Cc1cc(NC(=O)c3oc(N4CCCC(C)C4)nc3C(F)(F)F)ccc1-2` (centres unmarked) [Compound 235, 2-(3-methylpiperidin-1-yl)-N-(7-(o-tolylcarbamoyl)-9H-fluoren-2-yl)-4-(trifluoromethyl)oxazole-5-carboxamide] gave a pIC50 of 6.30 to 7.00.

`CC1CCCN(c2nc(C(F)(F)F)c(C(=O)Nc3ccc(N4CCCN(C(=O)C(O)C(F)(F)F)CC4)nc3)o2)C1` (centres unmarked) [Compound 191, 2-(3-methylpiperidin-1-yl)-N-(6-(4-(3,3,3-trifluoro-2-hydroxypropanoyl)-1,4-diazepan-1-yl)pyridin-3-yl)-4-(trifluoromethyl)oxazole-5-carboxamide]: the pIC50 was 6.30 to 7.00.
